# US8618139B2, “Oxadiazole derivatives as sphingosine 1-phosphate (S1P) receptor modulators” (Allergan, Inc., priority 2010, dated 2013)
# Molecular target: T1, human S1P1 receptor (Homo sapiens, UniProt P21453)
# T1 construct: expressed in transfected cells; membranes used
# Assay: GTP γ35S binding assay for S1P1 activity
# Format: biochemical
# Conditions: activity potency from GTP γ35S binding; membranes, test compounds 0.08 to 5,000 nM, 30 min at 25° C.
# Experimental: Compounds were synthesized and tested for S1P1 activity using the GTP γ^35S binding assay. These compounds may be assessed for their ability to activate or block activation of the human S1P1 receptor in cells stably expressing the S1P1 receptor.
# GTP γ^35S binding was measured in the medium containing (mM) HEPES 25, pH 7.4, MgCl2 10, NaCl 100, dithitothreitol 0.5, digitonin 0.003%, 0.2 nM GTP γ^35S, and 5 μg membrane protein in a volume of 150 μl. Test compounds were included in the concentration range from 0.08 to 5,000 nM unless indicated otherwise. Membranes were incubated with 100 μM 5′-adenylylimmidodiphosphate for 30 min, and subsequently with 10 μM GDP for 10 min on ice. Drug solutions and membrane were mixed, and then reactions were initiated by adding GTP γ^35S and continued for 30 min at 25° C. Reaction mixtures were filtered over Whatman GF/B filters under vacuum, and washed three times with 3 mL of ice-cold buffer (HEPES 25, pH7.4, MgCl2 10 and NaCl 100). Filters were dried and mixed with scintillant, and counted for ^35S activity using a β-counter. Agonist-induced GTP γ^35S binding was obtained by subtracting that in the absence of agonist. Binding data were analyzed using a non-linear regression method. In case of antagonist assay, the reaction mixture contained 10 nM S1P in the presence of test antagonist at concentrations ranging from 0.08 to 5000 nM.
# T1 sequence (P21453 whole entry): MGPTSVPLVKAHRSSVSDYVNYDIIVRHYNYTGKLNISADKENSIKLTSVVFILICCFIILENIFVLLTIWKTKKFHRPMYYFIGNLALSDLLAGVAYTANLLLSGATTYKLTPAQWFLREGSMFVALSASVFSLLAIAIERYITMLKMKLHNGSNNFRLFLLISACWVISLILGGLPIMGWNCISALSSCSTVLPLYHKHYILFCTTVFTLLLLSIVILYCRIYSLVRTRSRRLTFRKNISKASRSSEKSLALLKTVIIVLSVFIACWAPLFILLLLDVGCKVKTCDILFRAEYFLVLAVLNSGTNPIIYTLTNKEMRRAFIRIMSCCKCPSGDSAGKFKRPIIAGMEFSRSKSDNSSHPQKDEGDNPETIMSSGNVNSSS
row,Compound,EC50
1,"CNc1ncccc1-c1noc(C(Nc2ccc(C)c(C)c2)c2cccc(Cl)c2)n1 (stereo not shown) [Compound 1, 3-(5-((3-chlorophenyl)((3,4-dimethylphenyl)amino)methyl)-1,2,4-oxadiazol-3-yl)-N-methylpyridin-2-amine]",336 nM
2,"CNc1ncccc1-c1noc(C(Oc2ccc(C)c(C)c2)c2ccc(Cl)cc2)n1 (stereo not shown) [Compound 15, 3-(5-((4-chlorophenyl)(3,4-dimethylphenoxy)methyl)-1,2,4-oxadiazol-3-yl)-N-methylpyridin-2-amine]",509 nM
3,"CNc1ncccc1-c1noc(C(Oc2ccc(C)cc2)c2cccc(Cl)c2)n1 (stereo not shown) [Compound 32, 3-(5-((3-chlorophenyl)(p-tolyloxy)methyl)-1,2,4-oxadiazol-3-yl)-N-methylpyridin-2-amine]",1340 nM
4,"CNc1ncccc1-c1noc(C(Oc2ccc(C)cc2)c2ccccc2Cl)n1 (stereo not shown) [Compound 30, 3-(5-((2-chlorophenyl)(p-tolyloxy)methyl)-1,2,4-oxadiazol-3-yl)-N-methylpyridin-2-amine]",1920 nM
5,"CNc1ncccc1-c1noc(C(Oc2cccc(C)c2)c2ccccc2Cl)n1 (stereo not shown) [Compound 35, 3-(5-((2-chlorophenyl)(m-tolyloxy)methyll)-1,2,4-oxadiazol-3-yl)-N-methylpyridin-2-amine]",2140 nM
6,"CNc1ncccc1-c1noc(C(Oc2ccc(C)c(C)c2)c2cccc(Cl)c2)n1 (stereo not shown) [Compound 7, 3-(5-((3-chlorophenyl)(3,4-dimethylphenoxy)methyl)-1,2,4-oxadiazol-3-yl)-N-methylpyridin-2-amine]",1540 nM
7,"CNc1ncccc1-c1noc(C(Sc2ccc(C)cc2C)c2ccc(Cl)cc2)n1 (stereo not shown) [Compound 16, 3-(5-((4-chlorophenyl)((2,4-dimethylphenyl)thio)methyl)-1,2,4-oxadiazol-3-yl)-N-methylpyridin-2-amine]",2020 nM
8,"CNc1ncccc1-c1noc(C(Oc2ccc(Cl)c(C)c2)c2ccc(Cl)cc2)n1 (stereo not shown) [Compound 21, 3-(5-((4-chloro-3-methylphenoxy)(4-chlorophenyl)methyl)-1,2,4-oxadiazol-3-yl)-N-methylpyridin-2-amine]",2080 nM
9,"CNc1ncccc1-c1noc(C(SC2CCCCC2)c2ccc(Cl)cc2)n1 (stereo not shown) [Compound 17, 3-(5-((4-chlorophenyl)(cyclohexylthio)methyl)-1,2,4-oxadiazol-3-yl)-N-methylpyridin-2-amine]",550 nM
10,"CNc1ncccc1-c1noc(C(Nc2ccc(C)c(C)c2)c2ccccc2)n1 (stereo not shown) [Compound 10, 3-(5-(((3,4-dimethylphenyl)amino)(phenyl)methyl)-1,2,4-oxadiazol-3-yl)-N-methylpyridin-2-amine]",2390 nM
11,"CNc1ncccc1-c1noc(C(Sc2ccc(C)c(C)c2)c2cccc(F)c2)n1 (stereo not shown) [Compound 3, 3-(5-(((3,4-dimethylphenyl)thio)(3-fluorophenyl)methyl)-1,2,4-oxadiazol-3-yl)-N-methylpyridin-2-amine]",368 nM
12,"CNc1ncccc1-c1noc(C(Sc2ccc(C)c(C)c2)c2ccc(Cl)c(Cl)c2)n1 (stereo not shown) [Compound 4, 3-(5-((3,4-dichlorophenyl)((3,4-dimethylphenyl)thio)methyl)-1,2,4-oxadiazol-3-yl)-N-methylpyridin-2-amine]",638 nM
13,"CNc1ncccc1-c1noc(C(Sc2ccc(C)c(C)c2)c2ccc(Cl)cc2)n1 (stereo not shown) [Compound 22, 3-(5-((4-chlorophenyl)((3,4-dimethylphenyl)thio)methyl)-1,2,4-oxadiazol-3-yl)-N-methylpyridin-2-amine]",241 nM
14,"CNc1ncccc1-c1noc(C(Oc2ccc(C)c(C)c2)c2ccccc2Cl)n1 (stereo not shown) [Compound 38, 3-(5-((2-chlorophenyl)(3,4-dimethylphenoxy)methyl)-1,2,4-oxadiazol-3-yl)-N-methylpyridin-2-amine]",1650 nM
15,"CNc1ncccc1-c1noc(C(Sc2ccc(C)c(C)c2)c2cccc(Br)c2)n1 (stereo not shown) [Compound 2, 3-(5-((3-bromophenyl)((3,4-dimethylphenyl)thio)methyl)-1,2,4-oxadiazol-3-yl)-N-methylpyridin-2-amine]",650 nM
16,"CNc1ncccc1-c1noc(C(Sc2ccc(OC)cc2)c2ccc(Cl)cc2)n1 (stereo not shown) [Compound 20, 3-(5-((4-chlorophenyl)((4-methoxyphenyl)thio)methyl)-1,2,4-oxadiazol-3-yl)-N-methylpyridin-2-amine]",2560 nM
17,"CNc1ncccc1-c1noc(C(Sc2ccccc2)c2ccccc2)n1 (stereo not shown) [Compound 27, N-methyl-3-(5-(phenyl(phenylthio)methyl)-1,2,4-oxadiazol-3-yl)pyridin-2-amine]",1320 nM
18,"CNc1ncccc1-c1noc(C(Oc2cccc(Cl)c2)c2ccccc2Cl)n1 (stereo not shown) [Compound 36, 3-(5-((3-chlorophenoxy)(2-chlorophenyl)methyl)-1,2,4-oxadiazol-3-yl)-N-methylpyridin-2-amine]",2730 nM
19,"CNc1ncccc1-c1noc(C(Sc2ccoc2C)c2cccc(Cl)c2)n1 (stereo not shown) [Compound 13, 3-(5-((3-chlorophenyl)((2-methylfuran-3-yl)thio)methyl)-1,2,4-oxadiazol-3-yl)-N-methylpyridin-2-amine]",1380 nM
20,"CNc1ncccc1-c1noc(C(Sc2ccc(C)cc2)c2ccc(Cl)cc2)n1 (stereo not shown) [Compound 18, 3-(5-((4-chlorophenyl)(p-tolylthio)methyl)-1,2,4-oxadiazol-3-yl)-N-methylpyridin-2-amine]",3190 nM
21,"CNc1ncccc1-c1noc(C(SC2CCCCC2)c2cccc(C(F)(F)F)c2)n1 (stereo not shown) [Compound 6, 3-(5-((cyclohexylthio)(3-(trifluoromethyl)phenyl)methyl)-1,2,4-oxadiazol-3-yl)-N-methylpyridin-2-amine]",3010 nM
22,"CNc1ncccc1-c1noc(C(Oc2ccc(C)cc2)c2ccc(Cl)cc2)n1 (stereo not shown) [Compound 26, 3-(5-((4-chlorophenyl)(p-tolyloxy)methyl)-1,2,4-oxadiazol-3-yl)-N-methylpyridin-2-amine]",3120 nM
23,"CNc1ncccc1-c1noc(C(Sc2ccc(C)c(C)c2)c2ccccc2Cl)n1 (stereo not shown) [Compound 9, 3-(5-((2-chlorophenyl)((3,4-dimethylphenyl)thio)methyl)-1,2,4-oxadiazol-3-yl)-N-methylpyridin-2-amine]",716 nM
24,"CNc1ncccc1-c1noc(C(Sc2ccc(C)c(C)c2)c2cccc(Cl)c2)n1 (stereo not shown) [Compound 5, 3-(5-((3-chlorophenyl)((3,4-dimethylphenyl)thio)methyl)-1,2,4-oxadiazol-3-yl)-N-methylpyridin-2-amine]",214 nM
25,"CNc1ncccc1-c1noc(C(Oc2ccc(Cl)cc2)c2ccc(Cl)cc2)n1 (stereo not shown) [Compound 23, 3-(5-((4-chlorophenoxy)(4-chlorophenyl)methyl)-1,2,4-oxadiazol-3-yl)-N-methylpyridin-2-amine]",2050 nM
